IC50 data for 32 compounds are collected here from US11731986B2 (Sanford Burnham Prebys Medical Discovery Institute, priority 2017, dated 2023).

The target in this assay is T1, human LMPTP-A (Homo sapiens, UniProt P24666).
T1 sequence (P24666 1-158): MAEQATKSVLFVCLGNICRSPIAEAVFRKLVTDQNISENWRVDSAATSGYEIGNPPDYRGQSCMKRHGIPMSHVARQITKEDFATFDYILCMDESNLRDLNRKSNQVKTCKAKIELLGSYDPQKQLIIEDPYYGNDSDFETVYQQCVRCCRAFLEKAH
In words: Enzyme Assay of Inhibition of LMPTP-A (phosphatase assay, OMFP or pNPP substrate). The assay is classed as biochemical. Particulars: Bis-Tris pH 6.0, 37° C. An outline of the steps:
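Buffer 50 mM Bis-Tris pH 6.0, 1 mM DTT, 0.01% Triton X-100, 37 °C; OMFP read continuously (485/525 nm) or pNPP stopped with NaOH, 405 nm. IC50 from concentration vs % activity. Selectivity: 40 μM compound with 0.4 mM OMFP or 5 mM pNPP; reversibility: 50 nM enzyme, 10 μM compound, 5 min, 100× dilution.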

pIC50: −log10 of the molar value.

By pIC50 is commonly meant the IC50 on a negative log10 scale, so that one unit is a factor of ten. A low value points to a large IC50. In the case of `CN1CCC(NC(=O)c2ccc(-c3cc(NC4CCN(C)C4)c4cnccc4n3)cc2)CC1` (centres unmarked) [N-(1-Methylpiperidin-4-yl)-4-(4-((1-methylpyrrolidin-3-yl)amino)-1,6-naphthyridin-2-yl)benzamide], the pIC50 was 4.70 to 6.00.

As for `CN1CCC(NC(=O)c2ccc(-c3cc(NC4CCOCC4)c4cnccc4n3)cc2)CC1` [N-(1-Methylpiperidin-4-yl)-4-(4-((tetrahydro-2H-pyran-4-yl)amino)-1,6-naphthyridin-2-yl)benzamide], the pIC50 is not below 6.00.

The compound `CN1CCC(NC(=O)c2ccc(-c3cc(NC4CCNCC4)c4cnccc4n3)cc2)CC1` [N-(1-Methylpiperidin-4-yl)-4-(4-(piperidin-4-ylamino)-1,6-naphthyridin-2-yl)benzamide] had a pIC50 of 4.70 to 6.00.

For the compound `CN1CCC(NC(=O)c2ccc(-c3cc(NC4CCNC4)c4cnccc4n3)cc2)CC1` (centres unmarked) [N-(1-Methylpiperidin-4-yl)-4-(4-(pyrrolidin-3-ylamino)-1,6-naphthyridin-2-yl)benzamide], the pIC50 was 4.70 to 6.00.

`CN1CCC(NC(=O)c2cc3ccc(-c4cc(NCCCN5CCCCC5)c5cnccc5n4)cc3[nH]2)CC1` [N-(1-Methylpiperidin-4-yl)-6-(4-(3-(piperidin-1-yl)propylamino)-1,6-naphthyridin-2-yl)-1H-indole-2-carboxamide] had a pIC50 of 4.70 to 6.00.

The compound `CN1CCC(NC(=O)c2nc3cc(-c4cc(NCCCN5CCCCC5)c5cnccc5n4)cnc3[nH]2)CC1` [N-(1-Methylpiperidin-4-yl)-6-(4-(3-(piperidin-1-yl)propylamino)-1,6-naphthyridin-2-yl)-3H-imidazo[4,5-b]pyridine-2-carboxamide] showed a pIC50 not below 6.00.

Consider `CCN1CCC(NC(=O)c2cc3ccc(-c4cc(NCCCN5CCCCC5)c5cnccc5n4)cc3s2)CC1` [N-(1-ethylpiperidin-4-yl)-6-(4-(3-(piperidin-1-yl)propylamino)-1,6-naphthyridin-2-yl)benzo[b]thiophene-2-carboxamide], for which the pIC50 was not below 6.00.

As for `CN1CCC(NC(=O)COc2ccc(-c3cc(NCCCN4CCCCC4)c4cnccc4n3)cc2)CC1` [N-(1-methylpiperidin-4-yl)-2-(4-(4-(3-(piperidin-1-yl)propylamino)-1,6-naphthyridin-2-yl)phenoxy)acetamide], the pIC50 was not above 4.70.

On to `CN1CCC(NC(=O)COCc2ccc(-c3cc(NCCCN4CCCCC4)c4cnccc4n3)cc2)CC1` [N-(1-methylpiperidin-4-yl)-2-((4-(4-((3-(piperidin-1-yl)propyl)amino)-1,6-naphthyridin-2-yl)benzyl)oxy)acetamide], for which the negative logarithm of the IC50 (pIC50) is not below 6.00.

`CN1CCC(NC(=O)CCOc2ccc(-c3cc(NCCCN4CCCCC4)c4cnccc4n3)cc2)CC1` [N-(1-methylpiperidin-4-yl)-3-(4-(4-((3-(piperidin-1-yl)propyl)amino)-1,6-naphthyridin-2-yl)phenoxy)propanamide] gave a pIC50 not above 4.70.

`CN1CCC(NC(=O)c2ccc(-c3cc(NCCCN4CCCCC4)c4cnccc4n3)cn2)CC1` [N-(1-methylpiperidin-4-yl)-5-(4-((3-(piperidin-1-yl)propyl)amino)-1,6-naphthyridin-2-yl)picolinamide] had a pIC50 of 4.70 to 6.00.

`CN1CCC(NC(=O)c2cc3ccc(-c4cc(NCCCN5CCCCC5)c5cnccc5n4)cc3s2)CC1` [N-(1-methylpiperidin-4-yl)-6-(4-(3-(piperidin-1-yl)propylamino)-1,6-naphthyridin-2-yl)benzo[b]thiophene-2-carboxamide] showed a pIC50 not below 6.00.

The compound `CN1CCC(CCNC(=O)CCc2ccc(-c3cc(NCCCN4CCCCC4)c4cnccc4n3)cc2)CC1` [N-(2-(1-Methylpiperidin-4-yl)ethyl)-3-(4-(4-(3-(piperidin-1-yl)propylamino)-1,6-naphthyridin-2-yl)phenyl)propanamide] gave a pIC50 not below 6.00.

As to `CN1CCC(CCNC(=O)COCc2ccc(-c3cc(NCCCN4CCCCC4)c4cnccc4n3)cc2)CC1` [N-(2-(1-methylpiperidin-4-yl)ethyl)-2-(4-(4-(3-(piperidin-1-yl)propylamino)-1,6-naphthyridin-2-yl)benzyloxy)acetamide], the pIC50 is not below 6.00.

`CN1CCC(CCNC(=O)C#Cc2ccc(-c3cc(NCCCN4CCCCC4)c4cnccc4n3)cc2)CC1` [N-(2-(1-methylpiperidin-4-yl)ethyl)-3-(4-(4-((3-(piperidin-1-yl)propyl)amino)-1,6-naphthyridin-2-yl)phenyl)propiolamide] showed a pIC50 of 4.70 to 6.00.

As to `CN1CCCN(CCNC(=O)CCc2ccc(-c3cc(NCCCN4CCCCC4)c4cnccc4n3)cc2)CC1` [N-(2-(4-Methyl-1,4-diazepan-1-yl)ethyl)-3-(4-(4-(3-(piperidin-1-yl)propylamino)-1,6-naphthyridin-2-yl)phenyl)propanamide], the pIC50 was not below 6.00.

The compound `CN1CCCN(CCNC(=O)COCc2ccc(-c3cc(NCCCN4CCCCC4)c4cnccc4n3)cc2)CC1` [N-(2-(4-methyl-1,4-diazepan-1-yl)ethyl)-2-(4-(4-(3-(piperidin-1-yl)propylamino)-1,6-naphthyridin-2-yl)benzyloxy)acetamide] showed a pIC50 not below 6.00.

Turning to `CN(C)CCNC(=O)c1cc2ccc(-c3cc(NCCCN4CCCCC4)c4cnccc4n3)cc2[nH]1` [N-(2-(Dimethylamino)ethyl)-6-(4-(3-(piperidin-1-yl)propylamino)-1,6-naphthyridin-2-yl)-1H-indole-2-carboxamide], the pIC50 is 4.70 to 6.00.

Compound `CN(C)CCNC(=O)c1cc2cc(-c3cc(NCCCN4CCCCC4)c4cnccc4n3)ccc2n1C` [N-(2-(dimethylamino)ethyl)-1-methyl-5-(4-((3-(piperidin-1-yl)propyl)amino)-1,6-naphthyridin-2-yl)-1H-indole-2-carboxamide] gave a negative-log IC50 (pIC50) not below 6.00.

For `CN(C)CCNC(=O)c1ccc(-c2cc(NCCCN3CCCCC3)c3cnccc3n2)cc1` [N-(2-(dimethylamino)ethyl)-4-(4-((3-(piperidin-1-yl)propyl)amino)-1,6-naphthyridin-2-yl)benzamide], the pIC50 was not below 6.00.

For `CN(C)CCNC(=O)c1nc2cc(-c3cc(NCCCN4CCCCC4)c4cnccc4n3)ccc2[nH]1` [N-(2-(dimethylamino)ethyl)-5-(4-(3-(piperidin-1-yl)propylamino)-1,6-naphthyridin-2-yl)-1H-benzo[d]imidazole-2-carboxamide], the pIC50 was not below 6.00.

The compound `CN(C)CCNC(=O)c1nc2cc(-c3cc(Nc4ccc(CN5CCCC5)cc4)c4cnccc4n3)ccc2[nH]1` [N-(2-(dimethylamino)ethyl)-5-(4-((4-(pyrrolidin-1-ylmethyl)phenyl)amino)-1,6-naphthyridin-2-yl)-1H-benzo[d]imidazole-2-carboxamide] showed a pIC50 not below 6.00.

As for `CN(C)CCNC(=O)c1cc2ccc(-c3cc(NCCCN4CCCCC4)c4cnccc4n3)cc2s1` [N-(2-(dimethylamino)ethyl)-6-(4-(3-(piperidin-1-yl)propylamino)-1,6-naphthyridin-2-yl)benzo[b]thiophene-2-carboxamide], the negative-log IC50 (pIC50) was 4.70 to 6.00.

The compound `CN1CCN(CCCNC(=O)c2nc3cc(-c4cc(NCCCN5CCCCC5)c5cnccc5n4)ccc3[nH]2)CC1` [N-(3-(4-methylpiperazin-1-yl)propyl)-5-(4-((3-(piperidin-1-yl)propyl)amino)-1,6-naphthyridin-2-yl)-1H-benzo[d]imidazole-2-carboxamide] showed a pIC50 not below 6.00.

With `CN1CCN(CCCNC(=O)c2nc3cc(-c4cc(Nc5ccc(CN6CCCC6)cc5)c5cnccc5n4)ccc3[nH]2)CC1` [N-(3-(4-methylpiperazin-1-yl)propyl)-5-(4-((4-(pyrrolidin-1-ylmethyl)phenyl)amino)-1,6-naphthyridin-2-yl)-1H-benzo[d]imidazole-2-carboxamide], the negative logarithm of the IC50 (pIC50) was not above 4.70.

The compound `O=C(NCCCN1CCCCC1)c1ccc(-c2cc(NCc3ccncc3)c3cnccc3n2)cc1` [N-(3-(Piperidin-1-yl)propyl)-4-(4-((pyridin-4-ylmethyl)amino)-1,6-naphthyridin-2-yl)benzamide] showed a pIC50 of 4.70 to 6.00.

Compound `O=C(NCCCN1CCCCC1)c1ccc(-c2cc(NC3CCOCC3)c3cnccc3n2)cc1` [N-(3-(Piperidin-1-yl)propyl)-4-(4-((tetrahydro-2H-pyran-4-yl)amino)-1,6-naphthyridin-2-yl)benzamide] gave a negative logarithm of the IC50 (pIC50) of 4.70 to 6.00.

In turn, `O=C(NCCCN1CCCCC1)c1ccc(-c2cc(NC3CCNCC3)c3cnccc3n2)cc1` [N-(3-(Piperidin-1-yl)propyl)-4-(4-(piperidin-4-ylamino)-1,6-naphthyridin-2-yl)benzamide] showed a negative logarithm of the IC50 (pIC50) of 4.70 to 6.00.

`O=C(NCCCN1CCCCC1)c1ccc(-c2cc(NC3CCNC3)c3cnccc3n2)cc1` (centres unmarked) [N-(3-(Piperidin-1-yl)propyl)-4-(4-(pyrrolidin-3-ylamino)-1,6-naphthyridin-2-yl)benzamide] showed a pIC50 of 4.70 to 6.00.

As for `O=C(NCCCN1CCCCC1)c1cc2ccc(-c3cc(NCCCN4CCCCC4)c4cnccc4n3)cc2[nH]1` [N-(3-(Piperidin-1-yl)propyl)-6-(4-(3-(piperidin-1-yl)propylamino)-1,6-naphthyridin-2-yl)-1H-indole-2-carboxamide], the pIC50 is 4.70 to 6.00.

In turn, `O=C(COCc1ccc(-c2cc(NCCCN3CCCCC3)c3cnccc3n2)cc1)NCCCN1CCCCC1` [N-(3-(piperidin-1-yl)propyl)-2-((4-(4-((3-(piperidin-1-yl)propyl)amino)-1,6-naphthyridin-2-yl)benzyl)oxy)acetamide] showed a pIC50 of 4.70 to 6.00.

For the compound `O=C(NCCCN1CCCCC1)c1cc2cc(-c3cc(NCCCN4CCCCC4)c4cnccc4n3)ccc2s1` [N-(3-(piperidin-1-yl)propyl)-5-(4-(3-(piperidin-1-yl)propylamino)-1,6-naphthyridin-2-yl)benzo[b]thiophene-2-carboxamide], the pIC50 was 4.70 to 6.00.
